# Experimental data from patent US10450573B2, “Compositions and methods for regulation of gene expression with, and detection of, folinic acid and folates” (The Board of Trustees of the Leland Stanford Junior …, priority 2014, dated 2019).
# Assays:
# [1] = cited from earlier work; for concentration that can accumulate in human blood plasma: intravenous infusion
# [2] = Surface plasmon resonance aptamer binding assay, (6R)-folinic acid; details: for Kd / ka, (6R)-Folinic Acid / kd, (6R)-Folinic Acid: SPR, 25° C., selection buffer pH 7.4, 5 mM MgCl2; for Selectivity: between (6R)- and (6S)-folinic acid diastereomers; for ka, (6R)-Folinic Acid / kd, (6R)-Folinic Acid: 1:1 binding model
# Method: (§1) Surface plasmon resonance characterization of aptamer binding properties. Nucleic acid aptamer preparation. RNA aptamers were prepared by PCR amplification of DNA template sequences (Table 4, Integrated DNA Technologies, Coralville, Iowa) using forward and reverse primers Biacore-fwd and Biacore-rev, respectively, followed by transcription of the PCR product using the MEGAshortscript T7 transcription kit (Life Technologies) and purification of the transcription product using the RNA Clean & Concentrator kit (Zymo Research, Irvine, Calif.), according to the manufacturers' instructions. Aptamers were resuspended in selection buffer, denatured at 65° C. for 5 min, and cooled to room temperature directly before use.
# (§2) Sensor chip surface generation. Experiments were performed on a Biacore X100 instrument (GE Healthcare) at 25° C. A CM5 sensor chip (GE Healthcare) was equilibrated with HBS-N buffer. The DNA linker strand (5′-AmMC6-[…]) (Integrated DNA Technologies) (SEQ ID NO:133), with an amino modified 6-carbon linker on the 5′ end, was immobilized to the chip surface. The carboxymethylated dextran surface of the CM5 chip was activated for 7 min at a flow rate of 10 μL/min using a 1:1 volume ratio of 0.4 M 1-ethyl-3-(3-dimethylaminopropyl) carbodiimide (GE Healthcare) and 0.1 M N-hydroxysuccinimide (GE Healthcare). A molar ratio of 1:30 of DNA strand to hexadecyltrimethylammonium bromide (Sigma-Aldrich, St. Louis, Mo.) was diluted in 10 mM HEPES buffer (Sigma-Aldrich) to a final concentration of 20 μM and 0.6 mM, respectively, and injected over the activated surface for 10 min at a flow rate of 5 μL/min. Excess activated groups were blocked by an injection of 1 M ethanolamine (GE Healthcare), pH 8.5, for 7 min at a flow rate of 10 μL/min. The immobilization reaction was performed sequentially on both flow cells (FC1, FC2) and yielded approximately 4,000 RU of the DNA strand.
# (§3) Aptamer binding assay. The Biacore X100 instrument was primed three times with running buffer prior to all binding assays. For each assay, three startup cycles were performed to stabilize the sensorgram baseline. For each startup cycle, the aptamer (˜40-70 ng/μL, ˜3 μM) was captured onto the sample flow cell (FC2) for 40 s at a flow rate of 5 μL/min. 25 mM NaOH (GE Healthcare) was injected for 30 s at a flow rate of 30 μL/min over both flow cells to regenerate the sensor surface. A dilution series of (6R)- or (6S)-folinic acid (Schircks Laboratories, Jona, Switzerland) was prepared in selection buffer and filtered through a 0.2 μm membrane (Pall Corporation, Port Washington, N.Y.). For each concentration sample, the aptamer was captured onto the sample flow cell (FC2) for 40 s at a flow rate of 5 μL/min, the folinic acid solution was injected over both flow cells at a flow rate of 30 μL/min to monitor target association, and selection buffer was injected over both flow cells at a flow rate of 30 μL/min to monitor target dissociation. Association and dissociation phase lengths used were chosen based on time needed to reach equilibrium. Aptamer and folinic acid were removed from the sensor surface by injecting 25 mM NaOH for 30 s at a flow rate of 30 μL/min over both flow cells.
# (§4) Data processing and analysis were performed using Biacore X100 Evaluation Software version 2.0 (GE Healthcare). A double-referencing method was performed to process all datasets. Data from the sample flow cell (FC2) were referenced first by subtracting data from the reference flow cell (FC1) to correct for bulk refractive index changes, nonspecific binding, injection noise, matrix effects, and baseline drift. Reference-subtracted data (FC2−FC1) were double-referenced with a blank injection of running buffer to account for any systematic drift over the course of the injection. Double-referenced data were fit to a 1:1 binding model for kinetic analysis or steady-state affinity model for thermodynamic analysis. […]
# [3] = SPR binding to (6R,S)-5-methyl-5,6,7,8-tetrahydrofolic acid; details: ligand is mixture of (6R) and (6S) diastereomers; for Kd: read-out: KD, (6R,S)-5-methyl-THF
# [4] = Surface plasmon resonance aptamer binding assay, (6S)-folinic acid; details: SPR, 25° C., selection buffer pH 7.4, 5 mM MgCl2; for ka, (6S)-Folinic Acid / kd, (6S)-Folinic Acid: 1:1 binding model
# Method: as §1, §2, §3, §4
# [5] = SPR binding to (6R,S)-5-formyl-5,6,7,8-tetrahydropteroic acid; details: ligand is mixture of (6R) and (6S) diastereomers; for Kd: read-out: KD, (6R,S)-5-formyl-THPteroic Acid
Molecule,concentration that can accumulate in human blood plasma [1],Kd [2] [µM],Selectivity [2],Kd [3] [µM],"ka, (6S)-Folinic Acid [4] [M⁻¹ s⁻¹]","kd, (6S)-Folinic Acid [4] [s⁻¹]",Kd [4] [µM],"ka, (6R,S)-5-formyl-THPteroic Acid [5] [M⁻¹ s⁻¹]","kd, (6R,S)-5-formyl-THPteroic Acid [5] [s⁻¹]",Kd [5] [µM],"ka, (6R)-Folinic Acid [2] [M⁻¹ s⁻¹]","kd, (6R)-Folinic Acid [2] [s⁻¹]","ka, (6R,S)-5-methyl-THF [3] [M⁻¹ s⁻¹]","kd, (6R,S)-5-methyl-THF [3] [s⁻¹]",plasma concentration compared to the (6S) diastereomer ([1]; in vivo) [fold],plasma half-life compared to the (6S) diastereomer ([1]; in vivo)
Nc1nc(=O)c2c([nH]1)NC[C@H](CNc1ccc(C(=O)N[C@@H](CCC(=O)O)C(=O)O)cc1)N2C=O [(6S)-folinic acid],≤ 7.95 µM,–,–,–,–,–,–,–,–,–,–,–,–,–,–,–
"tFA10-7: truncated (6S)-FA specific RNA aptamer, SEQ ID NO: 24 (ACGGCGAAGAGUCAAAGCAUCCCCUGCGAAAGCAGGGCCCGU; unmodified RNA)",–,74.4,515,81.8,53600,0.00775,0.144,35200,0.00697,0.198,–,–,–,–,–,–
"tFA8-11: truncated (6R)-FA specific RNA aptamer, SEQ ID NO: 20 (UGCAGUGCUUGGUACGUUAUAUUCAGCUGCA; unmodified RNA)",–,0.0405,855,13.6,6560,0.227,34.6,750000,0.00568,0.0757,116000,0.00468,14300,0.195,–,–
"tFA8-16: truncated (6R)-FA specific RNA aptamer, SEQ ID NO: 22 (CUCCUUCCGGUGACCUGGACGUUAUUUCCGGCCGAAGGGAG; unmodified RNA)",–,1.82,684,–,682,0.85,1250,–,–,–,33000,0.0602,–,–,–,–
"tFA6-8: truncated (6R)-FA specific RNA aptamer, SEQ ID NO: 21 (UUCCCGUCAGGUACGUUAUAUUCGGGGGA; unmodified RNA)",–,0.225,567,–,2330,0.297,128,–,–,–,77900,0.0176,–,–,–,–
Nc1nc2c(c(=O)[nH]1)N(C=O)[C@H](CNc1ccc(C(=O)N[C@@H](CCC(=O)O)C(=O)O)cc1)CN2 [(6R)-folinic acid],up to 77.6 μM,–,–,–,–,–,–,–,–,–,–,–,–,–,≤ 18,up to 15 fold
"tFA8-4: truncated (6R)-FA specific RNA aptamer, SEQ ID NO: 18 (GCUUGGCGUUGCGUGGUACGUUAUAUUCCGGCCAAGC; unmodified RNA)",–,0.0192,260,6.29,21100,0.105,4.98,135000,0.00494,0.0366,269000,0.00515,33500,0.211,–,–
"tFA8-18: truncated (6S)-FA specific RNA aptamer, SEQ ID NO: 23 (nucleic acid, unmodified RNA) CUCGUCAAUGCAUAUGUAACGUUAACGGCGCUACCUGUACAAUGCACGUUCCGAGCGCCCGGAGACGAG",–,37.7,600,447,36100,0.00227,0.0628,53200,0.00633,0.119,94,0.00355,–,–,–,–
